From patent US20240228535A1 (priority 2022, published 2024)

These compounds were tested against SARS2 coronavirus 3CL protease (Severe acute respiratory syndrome coronavirus 2, UniProt P0DTD1) (assay: biochemical). Conditions: 5 nM enzyme, 30 min pre-incubation with compound, 15 μM peptide substrate, 4 h at room temperature; read-out: FRET Potency (nM); IC50 values in the SARS2 3CLPro FRET assay.

SMILES	IC50
CNC(=O)C(=O)[C@H](C[C@@H]1C[C@@H](C)NC1=O)NC(=O)c1cc(Cl)ccc1NC(=O)OCC1CC1(F)F (stereo partly drawn) [Example 187, (2,2-difluorocyclopropyl)methyl N-[4-chloro-2-[(1S)-3-(methylamino)-1-[[(3S,5R)-5-methyl-2-oxo-pyrrolidin-3-yl]methyl]-2,3-dioxo-propyl]carbamoyl]phenyl] carbamate]	2.5 nM
CNC(=O)C(=O)[C@H](C[C@@H]1C[C@@H](C)NC1=O)NC(=O)c1cc(Cl)ccc1NC(=O)OC1CC(F)(F)C1 [Example 188, (3,3-difluorocyclobutyl) N-[4-chloro-2-[(1S)-3-(methylamino)-1-[[(3S,5R)-5-methyl-2-oxo-pyrrolidin-3-yl]methyl]-2,3-dioxo-propyl]carbamoyl]phenyl] carbamate]	7.2 nM
CNC(=O)C(=O)[C@H](C[C@@H]1C[C@@H](C)NC1=O)NC(=O)c1cc(Cl)ccc1NC(=O)C1CC1C(F)(F)F (stereo partly drawn) [Example 189, 5-chloro-N-[(1S)-3-(methylamino)-1-[[(3S,5R)-5-methyl-2-oxo-pyrrolidin-3-yl]methyl]-2,3-dioxo-propyl]-2-[[2-(trifluoromethyl)cyclopropane-carbonyl]amino]benzamide]	3.5 nM
CNC(=O)C(=O)[C@H](C[C@@H]1C[C@@H](C)NC1=O)NC(=O)c1cc(Cl)ccc1NC(=O)C1CC1C(F)(F)F (stereo partly drawn) [Example 190, 5-chloro-N-[(1S)-3-(methylamino)-1-[[(3S,5R)-5-methyl-2-oxo-pyrrolidin-3-yl]methyl]-2,3-dioxo-propyl]-2-[[2-(trifluoromethyl)cyclopropane-carbonyl]amino]benzamide]	3.1 nM
O=C(Nc1ccc(Cl)cc1C(=O)N[C@@H](C[C@@H]1CCNC1=O)C(=O)C(=O)NC1CC1)OCC(F)(F)F [Example 191, 2,2,2-trifluoroethyl N-[4-chloro-2-[[(1S)-3-(cyclopropylamino)-2,3-dioxo-1-[[(3S)-2-oxopyrrolidin-3-yl]methyl]propyl]carbamoyl]phenyl]carbamate]	16.1 nM
C[C@@H]1C[C@@H](C[C@H](NC(=O)c2cc(Cl)ccc2NC(=O)C2CCOCC2)C(=O)C(=O)NC2CC2)C(=O)N1 [Example 192, N-[4-chloro-2-[[(1S)-3-(cyclopropylamino)-1-[[(3S,5R)-5-methyl-2-oxo-pyrrolidin-3-yl]methyl]-2,3-dioxo-propyl]carbamoyl]phenyl]tetra-hydropyran-4-carboxamide]	10.3 nM
C[C@@H]1C[C@@H](C[C@H](NC(=O)c2cc(Cl)ccc2NC(=O)[C@@H]2CNC(=O)O2)C(=O)C(=O)NC2CC2)C(=O)N1 [Example 193, (5S)-N-[4-chloro-2-[[(1S)-3-(cyclopropylamino)-1-[[(3S,5R)-5-methyl-2-oxo-pyrrolidin-3-yl]methyl]-2,3-dioxo-propyl]carbamoyl]phenyl]-2-oxo-oxazolidine-5-carboxamide]	5.2 nM
C[C@@H]1C[C@@H](C[C@H](NC(=O)c2cc(Cl)ccc2NC(=O)N2CCOCC2)C(=O)C(=O)NC2CC2)C(=O)N1 [Example 194, N-[4-chloro-2-[[(1S)-3-(cyclopropylamino)-1-[[(3S,5R)-5-methyl-2-oxo-pyrrolidin-3-yl]methyl]-2,3-dioxo-propyl]carbamoyl]phenyl] morpholine-4-carboxamide]	6.8 nM
CNC(=O)C(=O)[C@H](C[C@@H]1C[C@@H](C)NC1=O)NC(=O)c1cc(Cl)ccc1NC(=O)C(C)c1cscn1 (stereo partly drawn) [Example 195, 5-chloro-N-[(1S)-3-(methylamino)-1-[[(3S,5R)-5-methyl-2-oxo-pyrrolidin-3-yl]methyl]-2,3-dioxo-propyl]-2-(2-thiazol-4-ylpropanoylamino)benzamide]	3.1 nM
CNC(=O)C(=O)[C@H](C[C@@H]1CCNC1=O)NC(=O)c1cc(F)ccc1NC(=O)c1ccnc(C(F)(F)F)c1 [Example 196, N-[4-fluoro-2-[[(1S)-3-(methylamino)-2,3-dioxo-1-[[(3S)-2-oxopyrrolidin-3-yl]methyl]propyl]carbamoyl]phenyl]-2-(trifluoromethyl)pyridine-4-carboxamide]	7.6 nM
CNC(=O)C(=O)[C@H](C[C@@H]1C[C@@H](C)NC1=O)NC(=O)c1cc(Cl)ccc1NC(=O)C1CCC(F)(F)CC1 [Example 197]	9.4 nM
CNC(=O)C(=O)[C@H](C[C@@H]1C[C@@H](C)NC1=O)NC(=O)c1cc(Cl)ccc1NC(=O)OC1CCC(F)(F)C1 (stereo partly drawn) [Example 200, (3,3-difluorocyclopentyl) N-[4-chloro-2-[[(1S)-3-(methylamino)-1-[[(3S,5R)-5-methyl-2-oxo-pyrrolidin-3-yl]methyl]-2,3-dioxo-propyl]carbamoyl]phenyl] carbamate]	4.6 nM
CNC(=O)C(=O)[C@H](C[C@@H]1C[C@@H](C)NC1=O)NC(=O)c1cc(Cl)ccc1NC(=O)OC1CCC(F)(F)C1 (stereo partly drawn) [Example 201, (3,3-difluorocyclopentyl) N-[4-chloro-2-[(1S)-3-(methylamino)-1-[[(3S,5R)-5-methyl-2-oxo-pyrrolidin-3-yl]methyl]-2,3-dioxo-propyl]carbamoyl]phenyl] carbamate]	7 nM
CNC(=O)C(=O)[C@H](C[C@@H]1C[C@@H](C)NC1=O)NC(=O)c1cc(Cl)ccc1NC(=O)C1(CC(F)(F)F)CC1 [Example 202, 5-chloro-N-[(1S)-3-(methylamino)-1-[[(3S,5R)-5-methyl-2-oxo-pyrrolidin-3-yl]methyl]-2,3-dioxo-propyl]-2-[[1-(2,2,2-trifluoroethyl)cyclopropane-carbonyl]amino]benzamide]	11.9 nM
CNC(=O)C(=O)[C@H](C[C@@H]1C[C@@H](C)NC1=O)NC(=O)c1cc(C(F)F)ccc1NC(=O)C1(C(F)(F)F)CC1 [Example 203, 5-(difluoromethyl)-N-[(1S)-3-(methylamino)-1-[[(3S,5R)-5-methyl-2-oxo-pyrrolidin-3-yl]methyl]-2,3-dioxo-propyl]-2-[[1-(trifluoromethyl)cyclopropane-carbonyl]amino]benzamide]	36.6 nM
C[C@@H]1C[C@@H](C[C@H](NC(=O)c2cc(Cl)ccc2NC(=O)[C@@H]2CN(C)C(=O)O2)C(=O)C(=O)NC2CC2)C(=O)N1 [Example 204, (5S)-N-[4-chloro-2-[[(1S)-3-(cyclopropylamino)-1-[[(3S,5R)-5-methyl-2-oxo-pyrrolidin-3-yl]methyl]-2,3-dioxo-propyl]carbamoyl]phenyl]-3-methyl-2-oxo-oxazolidine-5-carboxamide]	4.7 nM
C[C@@H]1C[C@@H](C[C@H](NC(=O)c2cc(Cl)ccc2NC(=O)[C@H]2CN(C)C(=O)O2)C(=O)C(=O)NC2CC2)C(=O)N1 [Example 205]	6.6 nM
C[C@@H]1C[C@@H](C[C@H](NC(=O)c2cc(Cl)cc(F)c2NC(=O)C23CC(F)(C2)C3)C(=O)C(=O)NC2CC2)C(=O)N1 [Example 206]	12.8 nM
CNC(=O)C(=O)[C@H](C[C@@H]1C[C@@H](C)NC1=O)NC(=O)c1cc(F)ccc1NC(=O)c1ccnc(C(F)(F)F)c1 [Example 207, N-[4-fluoro-2-[[(1S)-3-(methylamino)-1-[[(3S,5R)-5-methyl-2-oxo-pyrrolidin-3-yl]methyl]-2,3-dioxo-propyl]carbamoyl]phenyl]-2-(trifluoromethyl)pyridine-4-carboxamide]	11.4 nM
C[C@@H]1C[C@@H](C[C@H](NC(=O)c2cc(Cl)ccc2NC(=O)c2ccnc(C(F)(F)F)c2)C(=O)C(N)=O)C(=O)N1 [Example 208, N-[2-[[(1S)-3-amino-1-[[(3S,5R)-5-methyl-2-oxo-pyrrolidin-3-yl]methyl]-2,3-dioxo-propyl]carbamoyl]-4-chloro-phenyl]-2-(trifluoromethyl)pyridine-4-carboxamide]	6.9 nM
C[C@@H]1C[C@@H](C[C@H](NC(=O)c2cc(Cl)ccc2NC(=O)[C@H](C)CC(F)(F)F)C(=O)C(=O)NC2CC2)C(=O)N1 [Example 209, 5-chloro-N-[(1S)-3-(cyclopropylamino)-1-[[(3S,5R)-5-methyl-2-oxo-pyrrolidin-3-yl]methyl]-2,3-dioxo-propyl]-2-[[(2R)-4,4,4-trifluoro-2-methyl-butanoyl]amino]benzamide]	9.8 nM
CC(OC(=O)Nc1ccc(Cl)cc1C(=O)N[C@@H](C[C@@H]1C[C@@H](C)NC1=O)C(=O)C(=O)NC1CC1)C(F)(F)F (stereo partly drawn) [Example 210, (2,2,2-trifluoro-1-methyl-ethyl) N-[4-chloro-2-[[(1S)-3-(cyclopropylamino)-1-[[(3S,5R)-5-methyl-2-oxo-pyrrolidin-3-yl]methyl]-2,3-dioxo-propyl]carbamoyl]phenyl] carbamate]	7.8 nM
CC(OC(=O)Nc1ccc(Cl)cc1C(=O)N[C@@H](C[C@@H]1C[C@@H](C)NC1=O)C(=O)C(=O)NC1CC1)C(F)(F)F (stereo partly drawn) [Example 211, (2,2,2-trifluoro-1-methyl-ethyl) N-[4-chloro-2-[[(1S)-3-(cyclopropylamino)-1-[[(3S,5R)-5-methyl-2-oxo-pyrrolidin-3-yl]methyl]-2,3-dioxo-propyl]carbamoyl]phenyl] carbamate]	7.3 nM
C[C@@H]1C[C@@H](C[C@H](NC(=O)c2cc(Cl)ccc2NC(=O)[C@@H]2CN(C)C(=O)N2C)C(=O)C(=O)NC2CC2)C(=O)N1 [Example 212, (4S)-N-[4-chloro-2-[[(1S)-3-(cyclopropylamino)-1-[[(3S,5R)-5-methyl-2-oxo-pyrrolidin-3-yl]methyl]-2,3-dioxo-propyl]carbamoyl]phenyl]-1,3-dimethyl-2-oxo-imidazolidine-4-carboxamide]	5.6 nM
C[C@@H]1C[C@@H](C[C@H](NC(=O)c2cc(Cl)cc(F)c2NC(=O)CCC(F)(F)F)C(=O)C(=O)NC2CC2)C(=O)N1 [Example 213, 5-chloro-N-[(1S)-3-(cyclopropylamino)-1-[[(3S,5R)-5-methyl-2-oxo-pyrrolidin-3-yl]methyl]-2,3-dioxo-propyl]-3-fluoro-2-(4,4,4-trifluorobutanoylamino) benzamide]	15.4 nM
CNC(=O)C(=O)[C@H](C[C@@H]1C[C@@H](C)NC1=O)NC(=O)c1cc(Cl)c(F)cc1NC(=O)C1(CC(F)(F)F)CC1 [Example 214, 5-chloro-4-fluoro-N-[(1S)-3-(methylamino)-1-[[(3S,5R)-5-methyl-2-oxo-pyrrolidin-3-yl]methyl]-2,3-dioxo-propyl]-2-[[1-(2,2,2-trifluoroethyl)cyclopropane-carbonyl]amino]benzamide]	6.8 nM
